Experimental findings from publication PMC11672562, “Synthesis and Antibacterial Activity of New 6″-Modified Tobramycin Derivatives” (Antibiotics, 2024) are described below.

Assay [1] deals with E. coli JW5503 transformed with pJC27 plasmids. The assay can be described thus: Translation accuracy reporter (mutant β-galactosidase, X-Gal staining). The format is cell-based. As to conditions: 4a,b, 6a,b and tobramycin 50 mg/mL; streptomycin, kanamycin 5 mg/mL; rifampicin 1 mg/mL. The source says:
It is known that tobramycin inhibits protein biosynthesis by the blocking of initiation and inducing translation errors. We have tested whether the new tobramycin derivatives 4a,b and 6a,b retain the ability to induce translation errors. This assay uses an E. coli strain with a plasmid construct that encodes beta-galactosidase in such a way that a functional protein is only synthesized in the presence of translation errors. If the mechanism of action of the antibiotic is related to the translation errors, we observe indigo blue staining along the edge of the inhibition zone because functional b-galactosidase degrades the substrate X-Gal. As a result, if the antibiotic causes translation errors, blue staining forms around the edge of the inhibition zone. […] According to this, an introduction at the 6″-position of the aminoalkylamino or guanidinoalkylamino residues of tobramycin retains an original mechanism of aminoglycoside’s antibacterial activity affecting the protein synthesis.
To qualitatively evaluate translation accuracy in the presence of antibiotics, E. coli JW5503 [34] (kanamycin resistance cassette removed as per) transformed with pJC27 plasmids was utilized. The plasmids encode the β-galactosidase gene containing a mutation in its active center (E537: GAA→GAC/GGG), alongside a control plasmid without the mutation. Active β-galactosidase synthesis could only occur if translation errors were introduced. Petri dishes (9 cm) containing 20 mL of solid LB agar (1.5%) supplemented with chloramphenicol (11.3 μg/mL) and X-Gal (80 μg/mL) were prepared. A secondary layer comprising 3.5 mL of LB agar (0.6%), supplemented with 11.3 μg/mL chloramphenicol and 0.5 mL of liquid culture (A600~1.0), was added and allowed to solidify. Antibiotics were applied to the plates in 1 μL aliquots at the following concentrations: 50 mg/mL for 4a, 4b, 6a, 6b, and tobramycin; 5 mg/mL for streptomycin and kanamycin; and 1 mg/mL for rifampicin. Plates were incubated at 37 °C for 18 h. […] Results were documented using a Samsung Galaxy Tab A71 camera.

In the next assay the test system is P. aeruginosa ATCC 27853. The assay can be described thus: MIC, broth microdilution, P. aeruginosa ATCC 27853. The assay is classed as cell-based. The method, then:
The microbial strains used in this study were obtained from the collection of the Gause Institute of New Antibiotics. […] Storage was carried out in accordance with CLSI guidelines.
(§1) Activity was evaluated by determining the minimum inhibitory concentration (MIC) values using the microdilution method in Mueller–Hinton Broth (Beckton and Dickinson, Le Pont-de-Claix, France), in accordance with the standard procedure for assessing the antimicrobial susceptibility of microorganisms.
(§2) The analysis was conducted in 96-well microtiter plates (Medpolymer, Saint Petersburg, Russia). The bacterial inoculum was introduced within 15 min of preparation. […] Microbial growth in the presence of the tested compounds was compared to the growth control (without exposure to the test samples). The MIC was defined as the lowest concentration at which visible microbial growth was inhibited.
(§3) The MIC values of the reference strains were required to fall within the acceptable ranges specified in [30], provided that standard assay conditions were maintained.
For orientation: In broth dilution the organism is exposed to a series of concentrations in liquid medium.

For assay [2], the system named is resistant clinical isolates of P. aeruginosa. Put plainly: MIC against resistant clinical isolates of P. aeruginosa. The format is cell-based. As to conditions: Pseudomonas aeruginosa, P. aeruginosa strain. As to the method: (§4) The microbial strains used in this study were obtained from the collection of the Gause Institute of New Antibiotics. […] Storage was carried out in accordance with CLSI guidelines. Prior to experimentation, the bacterial strains were revived from cryopreservation by inoculating them onto trypticase soy agar (Becton, Dickinson, France) and incubating at (36 ± 1) °C for 16–24 h. Individual morphologically homogeneous colonies were then suspended in sterile physiological saline, and the turbidity of the suspension was adjusted to 0.5 McFarland units using a DEN-1 spectrophotometer (Biosan, Riga, Latvia), which corresponds to a concentration of 1.5 × 10^8 CFU/mL.
(§5) The samples were dissolved in sterile distilled water or dimethyl sulfoxide (DMSO), depending on the physicochemical properties of the compounds under investigation, to a concentration of 10,000 µg/mL.
as §1, §2

The subject of the next assay is E. coli JW5503 kanS. The assay can be described thus: MIC in LB medium, E. coli JW5503 kanS. The format is cell-based. As to conditions: 18 h. As to the method:
(§6) The determination of the minimum inhibitory concentration (MIC) was performed on three strains from the working collection of MSU: E. coli JW5503 [34], which lacked a kanamycin resistance cassette removed as per the method outlined in [39], and two strains derived from this strain through in vivo selection with kanamycin. The latter strains harbored P610T and P610L substitutions in the fusA gene. For the MIC determination, 100 μL (rows 2–11) and 200 μL (row 1) of LB liquid medium containing a 1:1000 dilution of overnight culture was added to each well of a 96-well transparent plate. Subsequently, 2 μL of a 50 μg/mL antibiotic solution was introduced into the first row, and serial two-fold dilutions were performed across each horizontal row, decreasing the antibiotic concentration incrementally. The final two rows were designated as controls: row 12 contained LB medium without cells or antibiotics, and row 11 contained cells without antibiotics. Following 18 h of incubation at 37 °C with constant agitation, the optical density at 590 nm (A590) was measured using a Victor X5 2030 spectrofluorometer (PerkinElmer, Waltham, MA, USA). The MIC was defined as the antibiotic concentration in the first well where no cell growth occurred. Each experiment was conducted in triplicate for all tested antibiotics.

Assay [3] concerns E. coli JW5503 kanS EF-G P610T. The assay can be described thus: MIC in LB medium, aminoglycoside-resistant mutant EF-G P610T. The assay is classed as cell-based. As to conditions: 18 h. The method, then: as §6
The subject of assay [4] is E. coli JW5503 kanS EF-G P610L. Put plainly: MIC in LB medium, aminoglycoside-resistant mutant EF-G P610L. As to conditions: 18 h. The format is cell-based. As to the method:
as §6

Assay [5] relates to E. coli S30 Extract System, firefly luciferase synthesis. Put plainly: Cell-free translation inhibition assay (firefly luciferase synthesis). The format is biochemical. As to conditions: final concentration of 2 μM; water = 100. As to the method: The inhibitory effects of the tested compounds on in vitro firefly luciferase synthesis were evaluated using the E. coli S30 Extract System for Linear Templates (Promega, Madison, WI, USA), as described previously. Briefly, reaction mixtures with a total volume of 5 μL were prepared, containing 0.1 mM of a mixture of all canonical amino acids, 4 U of RiboLock RNase Inhibitor (Thermo Fisher Scientific, Waltham, MA, USA), and 2 μM of the tested compounds. After pre-incubation at room temperature for 5 min, 100 ng of in vitro-transcribed firefly luciferase mRNA was added. The mixtures were then incubated at 37 °C for 20 min. After incubation, each reaction was supplemented with 5 μL of Bright-Glo™ reagent (Promega, Madison, WI, USA), and chemiluminescence was measured using a VICTOR X5 Multilabel Plate Reader (PerkinElmer, Waltham, MA, USA). The luminescence values were normalized to the negative control (water), which was assigned 100% activity.

In a further assay the test system is S. aureus ATCC 29213. Put plainly: MIC, broth microdilution, S. aureus ATCC 29213. The format is cell-based. As to the method: as §4, §5, §1, §2, §3
Another assay deals with E. coli ATCC 25922. The assay can be described thus: MIC, broth microdilution, E. coli ATCC 25922. The format is cell-based. As to the method: as §4, §5, §1, §2, §3
The subject of the next assay is E. coli JW5503. Put plainly: MIC, broth microdilution, E. coli JW5503. The assay is classed as cell-based. As to conditions: E. coli JW5503; Table 1. As to the method:
as §4, §5, §1, §2

Another assay deals with M. smegmatis ATCC 607. Put plainly: MIC, broth microdilution, M. smegmatis ATCC 607. The format is cell-based. The settings on record: Table 1. As to the method:
as §4, §5, §1, §2

Setting [6] is: quality control, must fall in acceptable ranges of [30].

A word on the MIC: it is the smallest concentration in the dilution series that meets the test's criterion for growth inhibition.

Converted amounts (≈) assume the structure as drawn. Like-named read-outs stand apart in the source and are kept apart here.

As for `[H]/N=C(/N)N[C@H]1[C@H](O)[C@@H](O)[C@H](O[C@@H]2O[C@@H](C)[C@](O)(C=O)[C@H]2O[C@@H]2O[C@@H](CO)[C@H](O)[C@@H](O)[C@@H]2NC)[C@@H](N/C(N)=N\[H])[C@@H]1O` [streptomycin, reference compound], in assay [1], the “induction of translation errors (blue staining at edge of inhibition zone)” value is given as “acted as miscoding inductors”.

In the case of `C[C@H]1[C@H](NC(=O)/C(=N\OC(C)(C)C(=O)O)c2csc(N)n2)C(=O)N1S(=O)(=O)O` [Aztreonam, aztreonam, reference compound], the MIC in the assay with P. aeruginosa ATCC 27853 (Pseudomonas aeruginosa, ATCC27853, P. aeruginosa ATCC 27853, Table 2, read-out: MIC) is 4 µg/mL (≈ 9.19 µM); in [2] (Table 2 column 3, head prints 27853), 16 µg/mL (≈ 36.7 µM); in [2] (Table 2 column 4, head prints 27853), 8 µg/mL (≈ 18.4 µM); in [2] (Table 2 column 5, head prints 27853), 32 µg/mL (≈ 73.5 µM); in assay [2] (Table 2 column 6, head prints 27853), 16 µg/mL (≈ 36.7 µM); in assay [2] (Table 2 column 7, head prints 27853), 16 µg/mL (≈ 36.7 µM).

In the case of `CC[C@H]1OC(=O)[C@H](C)[C@@H](O[C@H]2C[C@@](C)(OC)[C@@H](O)[C@H](C)O2)[C@H](C)[C@@H](O[C@@H]2O[C@H](C)C[C@H](N(C)C)[C@H]2O)[C@](C)(O)C[C@@H](C)C(=O)[C@H](C)[C@@H](O)[C@]1(C)O` [Erythromycin, erythromycin, reference compound], the MIC against E. coli JW5503 kanS (Escherichia coli, JW5503KANS) came to 2 µg/mL (≈ 2.73 µM); in assay [3] (Escherichia coli), 2 µg/mL (≈ 2.73 µM); in [4] (Escherichia coli), 2 µg/mL (≈ 2.73 µM). Besides, the “% control signal (relative maximal rate of firefly luciferase accumulation in vitro)” value in assay [5] was 0.8%.

Turning to kanamycin A [reference compound], the minimum inhibitory concentration (MIC) with S. aureus ATCC 29213 (Table 1) is 0.5 µg/mL; in the assay on E. coli ATCC 25922 (Table 1), 1 µg/mL; in the assay on E. coli JW5503, 1 µg/mL; against P. aeruginosa ATCC 27853 (P. aeruginosa ATCC 27853, Table 1), more than 32 µg/mL; against P. aeruginosa ATCC 27853 (P. aeruginosa ATCC 27853, Table 1, listed as kanamycin), more than 32 µg/mL; against M. smegmatis ATCC 607, 0.125 µg/mL. For the same compound, the MIC with E. coli JW5503 kanS (E. coli JW5503 kanS, LB medium) is on record as 5 µg/mL; in assay [3] (E. coli JW5503 kanS EF-G P610T, LB medium) it was 80 µg/mL; in assay [4] (E. coli JW5503 kanS EF-G P610L, LB medium), 80 µg/mL. Also, the “MIC of control antibiotic” value in the assay with S. aureus ATCC 29213 (setting [6]) and in the assay with E. coli ATCC 25922 (setting [6]) was 1 to 4 µg/mL each time. Moreover, the “% control signal (relative maximal rate of firefly luciferase accumulation in vitro)” value in assay [5] is 0.1%. The “induction of translation errors (blue staining at edge of inhibition zone)” value in assay [1] is “acted as miscoding inductors”.

For `CO[C@H]1/C=C/O[C@@]2(C)Oc3c(C)c(O)c4c(O)c(c(/C=N/N5CCN(C)CC5)c(O)c4c3C2=O)NC(=O)/C(C)=C\C=C\[C@H](C)[C@H](O)[C@@H](C)[C@@H](O)[C@@H](C)[C@H](OC(C)=O)[C@@H]1C` [Rifampicin, rifampicin, reference compound], the MIC worked out at 5 µg/mL (≈ 6.08 µM) in the assay on E. coli JW5503 kanS (Escherichia coli, JW5503KANS); 5 µg/mL (≈ 6.08 µM) in [3] (Escherichia coli); 5 µg/mL (≈ 6.08 µM) in assay [4] (Escherichia coli). Further, the “% control signal (relative maximal rate of firefly luciferase accumulation in vitro)” value in assay [5] came out at 87%. Besides, the “induction of translation errors (blue staining at edge of inhibition zone)” value in [1] is reported as “does not induce ribosomal errors”.
